Reference: patent US6989351B2, “Metabolic inhibitors against brassinosteroids” (Riken, priority 2000, dated 2006)

Tests used:
[1] = tested on: brassinosteroid biosynthesis; test: action on plants when used at a high concentration
Excerpt: Methods of application and doses of the metabolism inhibitor of the present invention can be suitably chosen by those skilled in the art depending on conditions including a purpose of application, a dosage form, a plot to be treated and the like. […] Such a phenomenon is recognized in difenoconazole, Brz217, Brz218, Brz224, Brz225 and the like, which are typical examples of the metabolism inhibitor of the present invention. Therefore, the metabolism inhibitor of the present invention is preferably applied to plants at a relatively low concentration. However, concentrations to achieve optimum action can be appropriately determined by those skilled in the art by referring to the following examples.

[2] = tested on: metabolism of brassinolide; test: brassinolide metabolism in cell free system (degradation associated with oxidation of the 26th position of brassinolide); format: biochemical; details: cell free system from immature seeds of Pisum sativum
Method: To examine whether the accelerating activity on elongation of the cress hypocotyl was on the basis of the inhibitory activity against the metabolism of brassinolide, which is considered to be a practically active brassinosteroid, activity of the compounds was examined in degradation system associated with oxidation of the 26th position of brassinolide. Immature seeds of Pisum sativum were used as plant materials. Brassinolide was added to a cell free system, and metabolic activity was determined by quantifying the compound at the right end in the following scheme to examine inhibitory action of difenoconazole against metabolism. [drawing 6]

SMILES	action at a high concentration, opposite to the action of the metabolism inhibitor [1]	Ratio of metabolism inhibition degree (%) relative to control ([2]; 0.01 μM) [%]	Ratio of metabolism inhibition degree (%) relative to control ([2]; 0.1 μM) [%]	Ratio of metabolism inhibition degree (%) relative to control ([2]; 1.0 μM) [%]	Ratio of metabolism inhibition degree (%) relative to control ([2]; 10 μM) [%]
CCCC1COC(Cn2cncn2)(c2ccccc2Cl)O1 (stereo not drawn) [Brz217]	inhibit brassinosteroid biosynthesis when used at a high concentration				
CCCC1COC(Cn2cncn2)(c2cccc(Cl)c2)O1 (stereo not drawn) [Brz218]	inhibit brassinosteroid biosynthesis when used at a high concentration				
CCCC1COC(Cn2cncn2)(c2ccc(OC)cc2)O1 (stereo not drawn) [Brz224]	inhibit brassinosteroid biosynthesis when used at a high concentration				
COCC1COC(Cn2cncn2)(c2ccc(Cl)cc2)O1 (stereo not drawn) [Brz225]	inhibit brassinosteroid biosynthesis when used at a high concentration				
CC1COC(Cn2cncn2)(c2ccc(Oc3ccc(Cl)cc3)cc2Cl)O1 (stereo not drawn) [Difenoconazole, difenoconazole]	inhibit brassinosteroid biosynthesis when used at a high concentration	0	7	72	76
